Columns and labels:
weeds [1] = test: Glasshouse weed control, HST inhibitors alone and with A22, pre-emergence; assay type: in vivo; settings: 336 h, 14 DAT; for pest or weed control at 15.625 g/ha: HST inhibitor rate 15.625 g/ha; for pest or weed control at 62.5 g/ha: HST inhibitor rate 62.5 g/ha; for pest or weed control at 250 g/ha: HST inhibitor rate 250 g/ha
Description: (§1) In a further test, the results of which are depicted in tables 18 and 19, weed seeds are planted out in trays containing 50% peat/50% John Innes no. 3 soil and grown in the glass house at 24-27 C day; 18-21 C night and approximately a 15 h photoperiod. Humidity is ˜65% and light levels at bench level are up to 2 mmol/m^2. Again all spray chemicals are dissolved in 0.2% X77 surfactant and sprayed from a boom on a track sprayer moving at 2 mph with the nozzle set about 2 inches above the plant tops. The spray volume is […]. Sprays are carried out both pre-emergence and post-emergence over small plants at about 7-12 d post-emergence. Plants are assessed at 14 DAT with herbicidal damage scored on a scale from 0 to 100%. The HPPD inhibiting herbicide is compound A22 (4-hydroxy-3-[[2-(2-methoxyethoxy)methyl]-6-(trifluoromethyl)-3-pyridinylicarbonyl]-bicyclo[3.2.1]oct-3-en-2-one) which is sprayed at 2 g/ha both alone and in mixture with various HST herbicides. Results and spray rates are depicted in Tables 18 and 19. Again the Colby formula has been used to calculate synergy scores observed following treatment with the mixture based on the results obtained with the single components alone. Positive synergy is observed between the HPPD herbicide and a wide variety of HST inhibitor herbicides applied both pre and postemergence across a variety of weeds.

weeds [2] = test: Glasshouse weed control, HST inhibitors alone and with A22, post-emergence; assay type: in vivo; settings: 336 h, 14 DAT, single replicate, read-out: % control score, Obs; for pest or weed control at 15.625 g/ha: 15.625 g/ha alone; for pest or weed control at 62.5 g/ha: 62.5 g/ha alone; for pest or weed control at 250 g/ha: 250 g/ha alone
Description: as §1

Arabidopsis HST = target: T1, Arabidopsis HST (Arabidopsis thaliana, UniProt Q1ACB3); test: HST total extraction (non TLC) assay, recombinant Arabidopsis HST from insect cells; assay type: biochemical
T1 construct: GST (factor Xa cleavage site) (N); made in house; host or cells: Sf9 insect cells (baculovirus, pAcG3X), membrane fraction
T1 sequence (Q1ACB3 70-386): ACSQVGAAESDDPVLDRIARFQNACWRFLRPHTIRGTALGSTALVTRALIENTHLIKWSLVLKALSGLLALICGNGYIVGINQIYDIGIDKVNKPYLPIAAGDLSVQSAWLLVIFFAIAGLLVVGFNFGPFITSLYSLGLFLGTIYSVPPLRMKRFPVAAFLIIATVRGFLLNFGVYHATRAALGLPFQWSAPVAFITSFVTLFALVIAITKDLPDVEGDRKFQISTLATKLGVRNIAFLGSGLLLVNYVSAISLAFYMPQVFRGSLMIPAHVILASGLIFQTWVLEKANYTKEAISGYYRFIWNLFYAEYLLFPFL

[3] = BRAPL, read-out: BRAPL Obs, % control score
[4] = PANMI, read-out: PANMI Obs, % control score
[5] = SIDSP, read-out: SIDSP Obs, % control score
[6] = Digitaria sanguinalis, DIGSA, read-out: DIGSA Obs, % control score
[7] = Echinochloa crus-galli, ECHCG, read-out: ECHCG Obs, % control score
[8] = Setaria faberi, SETFA, read-out: SETFA Obs, % control score

Structure (SMILES) | pest or weed control at 15.625 g/ha (weeds [1]; [3]) | pest or weed control at 62.5 g/ha (weeds [1]; [3]) | pest or weed control at 250 g/ha (weeds [1]; [3]) | pest or weed control at 15.625 g/ha (weeds [1]; [4]) | pest or weed control at 62.5 g/ha (weeds [1]; [4]) | pest or weed control at 250 g/ha (weeds [1]; [4]) | pest or weed control at 15.625 g/ha (weeds [1]; [5]) | pest or weed control at 62.5 g/ha (weeds [1]; [5]) | pest or weed control at 250 g/ha (weeds [1]; [5]) | pest or weed control at 15.625 g/ha (weeds [1]; [6]) | pest or weed control at 62.5 g/ha (weeds [1]; [6]) | pest or weed control at 250 g/ha (weeds [1]; [6]) | pest or weed control at 15.625 g/ha (weeds [1]; [7]) | pest or weed control at 62.5 g/ha (weeds [1]; [7]) | pest or weed control at 250 g/ha (weeds [1]; [7]) | pest or weed control at 15.625 g/ha (weeds [1]; [8]) | pest or weed control at 62.5 g/ha (weeds [1]; [8]) | pest or weed control at 250 g/ha (weeds [1]; [8]) | pest or weed control at 15.625 g/ha (weeds [2]; BRAPL) | pest or weed control at 62.5 g/ha (weeds [2]; BRAPL) | other results
O=c1c(-c2c(F)ccc(F)c2Cl)c(O)c2nccnc2n1CC(F)(F)F [Compound 2.17] | 0% | 0% | 2% | 0% | 0% | 0% | 0% | 0% | 0% | 0% | 0% | 0% | 0% | 0% | 10% | 0% | 0% | 10% | 1% | 15% | pest or weed control at 250 g/ha (weeds [2]; BRAPL): 50%; pest or weed control at 15.625 g/ha (weeds [2]; PANMI): 0%; pest or weed control at 62.5 g/ha (weeds [2]; PANMI): 10%; pest or weed control at 250 g/ha (weeds [2]; PANMI): 55%; pest or weed control at 15.625 g/ha (weeds [2]; SIDSP): 5%; pest or weed control at 62.5 g/ha (weeds [2]; SIDSP): 15%; pest or weed control at 250 g/ha (weeds [2]; SIDSP): 50%; pest or weed control at 15.625 g/ha (weeds [2]; Digitaria sanguinalis, DIGSA): 0%; pest or weed control at 62.5 g/ha (weeds [2]; Digitaria sanguinalis, DIGSA): 5%; pest or weed control at 250 g/ha (weeds [2]; Digitaria sanguinalis, DIGSA): 50%; pest or weed control at 15.625 g/ha (weeds [2]; Echinochloa crus-galli, ECHCG): 0%; pest or weed control at 62.5 g/ha (weeds [2]; Echinochloa crus-galli, ECHCG): 5%; pest or weed control at 250 g/ha (weeds [2]; Echinochloa crus-galli, ECHCG): 40%; pest or weed control at 15.625 g/ha (weeds [2]; Setaria faberi, SETFA): 0%; pest or weed control at 62.5 g/ha (weeds [2]; Setaria faberi, SETFA): 10%; pest or weed control at 250 g/ha (weeds [2]; Setaria faberi, SETFA): 40%; Estimated IC50 (ppm) (Arabidopsis HST): 38 ppm
CC1=NN(C)C(=O)C(c2c(C)cc(C)cc2C)C1=O (centres unmarked) [Compound 6.1] | 0% | 0% | 10% | 0% | 0% | 40% | 0% | 0% | 0% | 0% | 0% | 2% | 0% | 1% | 60% | 0% | 2% | 20% | 10% | 40% | pest or weed control at 250 g/ha (weeds [2]; BRAPL): 75%; pest or weed control at 15.625 g/ha (weeds [2]; PANMI): 2%; pest or weed control at 62.5 g/ha (weeds [2]; PANMI): 50%; pest or weed control at 250 g/ha (weeds [2]; PANMI): 80%; pest or weed control at 15.625 g/ha (weeds [2]; SIDSP): 5%; pest or weed control at 62.5 g/ha (weeds [2]; SIDSP): 15%; pest or weed control at 250 g/ha (weeds [2]; SIDSP): 20%; pest or weed control at 15.625 g/ha (weeds [2]; Digitaria sanguinalis, DIGSA): 0%; pest or weed control at 62.5 g/ha (weeds [2]; Digitaria sanguinalis, DIGSA): 10%; pest or weed control at 250 g/ha (weeds [2]; Digitaria sanguinalis, DIGSA): 30%; pest or weed control at 15.625 g/ha (weeds [2]; Echinochloa crus-galli, ECHCG): 0%; pest or weed control at 62.5 g/ha (weeds [2]; Echinochloa crus-galli, ECHCG): 5%; pest or weed control at 250 g/ha (weeds [2]; Echinochloa crus-galli, ECHCG): 50%; pest or weed control at 15.625 g/ha (weeds [2]; Setaria faberi, SETFA): 0%; pest or weed control at 62.5 g/ha (weeds [2]; Setaria faberi, SETFA): 20%; pest or weed control at 250 g/ha (weeds [2]; Setaria faberi, SETFA): 70%; Estimated IC50 (ppm) (Arabidopsis HST): 63 ppm

— patent publication US20110173718A1, “HERBICIDE TOLERANT PLANTS” (SYNGENTA CROP PROTECTION, INC., priority 2008, published 2011)
